Usually EC50 stands for the concentration at which the effect is half-maximal.

This assay concerns the target human APJ receptor (Homo sapiens (Human), UniProt P35414). Put plainly: Intracellular cAMP accumulation assay (APJ hcAMP, HTRF). Format: cell-based. The settings on record: HEK293 cells stably expressing human APJ receptor, inhibition of forskolin-mediated cAMP production. As to the method:
Intracellular cAMP Accumulation Assay
HEK293 cells stably expressing human APJ receptor were used to assess the activity of compounds. Cultured cells were detached and resuspended in the cAMP Homogeneous Time-Resolved Fluorescence (HTRF) assay buffer (Cisbio cat; #62AM4PEJ). The assay was performed in 384-well assay plates (Perkin-Elmer; cat #6008289) according to assay protocol provided by the manufacturer. Serial dilutions of a compound together with assay buffer containing […] and 2 μM forskolin were added to each well containing 5,000 cells and incubated for 30 minutes at room temperature. Subsequently, cAMP D2 reagent was added in the lysis buffer followed by the EuK antibody (Cisbio; cat #62AM4PEJ) and incubated for 60 min. The fluorescence emission ratio was measured using fluorometer. The intracellular cAMP concentrations (compound-stimulated inhibition of forskolin-mediated cAMP production) were calculated by extrapolation from a standard curve using known cAMP concentrations. The EC50 values were obtained by fitting the data to a sigmoidal concentration-response curve with variable slope.

Setting [1] is: read-out: Human APJ cAMP EC50 Potency range.
The mark [2] stands for this setting: read-out: hAPJ cAMP EC50 Potency range.

Like-named read-outs stand apart in the source and are kept apart here.

human APJ receptor, sequence (P35414 whole entry): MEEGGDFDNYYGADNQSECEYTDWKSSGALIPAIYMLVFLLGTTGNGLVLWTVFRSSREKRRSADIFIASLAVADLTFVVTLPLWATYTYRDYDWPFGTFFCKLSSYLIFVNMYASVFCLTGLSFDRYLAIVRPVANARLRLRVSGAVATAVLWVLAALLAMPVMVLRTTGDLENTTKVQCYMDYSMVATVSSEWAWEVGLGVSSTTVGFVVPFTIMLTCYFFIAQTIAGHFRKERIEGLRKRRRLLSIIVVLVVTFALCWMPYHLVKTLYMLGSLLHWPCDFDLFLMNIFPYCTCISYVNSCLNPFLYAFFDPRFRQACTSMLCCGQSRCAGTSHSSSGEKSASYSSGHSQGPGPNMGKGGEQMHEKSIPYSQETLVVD

Consider `CCCCc1nc(O)c(-c2nnc(Cc3ccc(Cl)cc3)o2)c(O)c1-c1c(OC)ccc(F)c1OC` (single isomer, unassigned) [Example 218, 6-butyl-3-{5-[(4-chlorophenyl)methyl]-1,3,4-oxadiazol-2-yl}-5-(3-fluoro-2,6-dimethoxyphenyl)pyridine-2,4-diol], for which the EC50 under setting [1] was in the range of 10 to 100 nM. With `CCCCc1nc(O)c(-c2nnc(Cc3ccc(Cl)cc3)o2)c(O)c1-c1c(OC)ccc(F)c1OC` (single isomer, unassigned) [Example 219, 6-butyl-3-{5-[(4-chlorophenyl)methyl]-1,3,4-oxadiazol-2-yl}-5-(3-fluoro-2,6-dimethoxyphenyl)pyridine-2,4-diol], the EC50 under setting [1] is 0.01 to 10 nM. On the same count and under the same terms, the figure for `CCOCc1nc(O)c(-c2nnc(Cc3ccc(Cl)cc3)o2)c(O)c1-c1c(O)cccc1OC` (single isomer, unassigned) [Example 222, 3-{5-[(4-chlorophenyl)methyl]-1,3,4-oxadiazol-2-yl}-6-(ethoxymethyl)-5-(2-hydroxy-6-methoxyphenyl)pyridine-2,4-diol] is 0.01 to 10 nM; for `CCOCc1nc(O)c(-c2nnc(Cc3ccc(Cl)cc3)o2)c(O)c1-c1c(O)cccc1OC` (single isomer, unassigned) [Example 223, 3-{5-[(4-chlorophenyl)methyl]-1,3,4-oxadiazol-2-yl}-6-(ethoxymethyl)-5-(2-hydroxy-6-methoxyphenyl)pyridine-2,4-diol] it is 10 to 100 nM.

In the case of `CCCCc1nc(O)c(-c2nnc(Cc3noc4ccccc34)o2)c(O)c1-c1c(OC)ccc(F)c1OC` (single isomer, unassigned; isomer 1) [Example 220, 3-[5-(1,2-benzoxazol-3-ylmethyl)-1,3,4-oxadiazol-2-yl]-6-butyl-5-(3-fluoro-2,6-dimethoxyphenyl) pyridine-2,4-diol (isomer 1)], the EC50 under setting [2] was in the range of 10 to 100 nM. With `CCCCc1nc(O)c(-c2nnc(Cc3noc4ccccc34)o2)c(O)c1-c1c(OC)ccc(F)c1OC` (single isomer, unassigned; isomer 2) [Example 221, 3-[5-(1,2-benzoxazol-3-ylmethyl)-1,3,4-oxadiazol-2-yl]-6-butyl-5-(3-fluoro-2,6-dimethoxyphenyl) pyridine-2,4-diol (isomer 2)], under setting [2], the EC50 was in the range of 0.01 to 10 nM. `CCCCc1nc(O)c(-c2nnc(Cc3ccccc3)o2)c(O)c1-c1c(OC)cc(C)cc1OC` [Example 2, 3-(5-benzyl-1,3,4-oxadiazol-2-yl)-6-butyl-5-(2,6-dimethoxy-4-methylphenyl) pyridine-2,4-diol]: under setting [2], the EC50 lay in the range of 100 to 300 nM.

`CCCCc1nc(O)c(-c2nnc(Cc3ccncc3)o2)c(O)c1-c1c(OC)cccc1OC` [Example 3, 6-butyl-5-(2,6-dimethoxyphenyl)-3-[5-(pyridin-4-ylmethyl)-1,3,4-oxadiazol-2-yl]pyridine-2,4-diol]: the EC50 under setting [2] was in the range of 10 to 100 nM.

Turning to `CCCCc1nc(O)c(-c2nnc(CCc3ccccc3)o2)c(O)c1-c1c(OC)cccc1OC` [Example 4, 6-butyl-5-(2,6-dimethoxyphenyl)-3-[5-(2-phenylethyl)-1,3,4-oxadiazol-2-yl]pyridine-2,4-diol], under setting [2], the EC50 was 10 to 100 nM. For the compound `CCCCc1nc(O)c(-c2nnc(Cc3ccccc3Cl)o2)c(O)c1-c1c(OC)cccc1OC` [Example 5, 6-butyl-3-{5-[(2-chlorophenyl)methyl]-1,3,4-oxadiazol-2-yl}-5-(2,6-dimethoxyphenyl) pyridine-2,4-diol], the EC50 under setting [2] was in the range of 10 to 100 nM. For `CCCCc1nc(O)c(-c2nnc(Cc3ccccc3OC)o2)c(O)c1-c1c(OC)cccc1OC` [Example 6, 6-butyl-5-(2,6-dimethoxyphenyl)-3-{5-[(2-methoxyphenyl)methyl]-1,3,4-oxadiazol-2-yl}pyridine-2,4-diol], the EC50 under setting [2] was in the range of 10 to 100 nM. The same measure, in the same setting: under `CCCCc1nc(O)c(-c2nnc(Cc3cccc(OC)c3)o2)c(O)c1-c1c(OC)cccc1OC` [Example 7, 6-butyl-5-(2,6-dimethoxyphenyl)-3-{5-[(3-methoxyphenyl)methyl]-1,3,4-oxadiazol-2-yl}pyridine-2,4-diol] stands 0.01 to 10 nM. Same read-out and setting: under `CCCCc1nc(O)c(-c2nnc(Cc3ccc(Cl)cc3)o2)c(O)c1-c1c(OC)cccc1OC` [Example 8, 6-butyl-3-{5-[(4-chlorophenyl)methyl]-1,3,4-oxadiazol-2-yl}-5-(2,6-dimethoxyphenyl) pyridine-2,4-diol] stands 0.01 to 10 nM. On the same count and under the same terms, the figure for `CCCCc1nc(O)c(-c2nnc(Cc3ccc(OC)cc3)o2)c(O)c1-c1c(OC)cccc1OC` [Example 9, 6-butyl-5-(2,6-dimethoxyphenyl)-3-{5-[(4-methoxyphenyl)methyl]-1,3,4-oxadiazol-2-yl}pyridine-2,4-diol] is 0.01 to 10 nM; for `CCCCc1nc(O)c(-c2nnc(-c3cccc(Cl)c3)o2)c(O)c1-c1c(OC)cccc1OC` [Example 10, 6-butyl-3-[5-(3-chlorophenyl)-1,3,4-oxadiazol-2-yl]-5-(2,6-dimethoxyphenyl) pyridine-2,4-diol] it is 10 to 100 nM; for `CCCCc1nc(O)c(-c2nnc(-c3ccccc3Cl)o2)c(O)c1-c1c(OC)cccc1OC` [Example 11, 6-butyl-3-[5-(2-chlorophenyl)-1,3,4-oxadiazol-2-yl]-5-(2,6-dimethoxyphenyl) pyridine-2,4-diol] it is 100 to 300 nM. As to `CCCCc1nc(O)c(-c2nnc(-c3cnccn3)o2)c(O)c1-c1c(OC)cccc1OC` [Example 12, 6-butyl-5-(2,6-dimethoxyphenyl)-3-[5-(pyrazin-2-yl)-1,3,4-oxadiazol-2-yl]pyridine-2,4-diol], the EC50 under setting [2] was 100 to 300 nM. Still for that read-out and setting: the figure for `CCCCc1nc(O)c(-c2nnc(C3(c4ccccc4)CC3)o2)c(O)c1-c1c(OC)cccc1OC` [Example 13, 6-butyl-5-(2,6-dimethoxyphenyl)-3-[5-(1-phenylcyclopropyl)-1,3,4-oxadiazol-2-yl]pyridine-2,4-diol] is 10 to 100 nM. Consider `CCCCc1nc(O)c(-c2nnc(C3CC3)o2)c(O)c1-c1c(OC)cccc1OC` [Example 14, 6-butyl-3-(5-cyclopropyl-1,3,4-oxadiazol-2-yl)-5-(2,6-dimethoxyphenyl) pyridine-2,4-diol], for which the EC50 under setting [2] was in the range of 100 to 300 nM. Regarding `CCCCc1nc(O)c(-c2nnc(C(C)(C)c3ccccc3)o2)c(O)c1-c1c(OC)cccc1OC` [Example 15, 6-butyl-5-(2,6-dimethoxyphenyl)-3-[5-(2-phenylpropan-2-yl)-1,3,4-oxadiazol-2-yl]pyridine-2,4-diol], under setting [2], the EC50 lay in the range of 0.01 to 10 nM.

As for `CCCCc1nc(O)c(-c2nnc(COc3ccccc3)o2)c(O)c1-c1c(OC)cccc1OC` [Example 17, 6-butyl-5-(2,6-dimethoxyphenyl)-3-[5-(phenoxymethyl)-1,3,4-oxadiazol-2-yl]pyridine-2,4-diol], under setting [2], the EC50 is 10 to 100 nM. On the same count and under the same terms, under `C=CCCc1nc(O)c(-c2nnc(Cc3ccccc3)o2)c(O)c1-c1c(OC)cccc1OC` [Example 18, 3-(5-benzyl-1,3,4-oxadiazol-2-yl)-6-(but-3-en-1-yl)-5-(2,6-dimethoxyphenyl) pyridine-2,4-diol] stands 10 to 100 nM. Take `CCCCc1nc(O)c(-c2nnc(-c3cc(C)[nH]n3)o2)c(O)c1-c1c(OC)cccc1OC` [Example 19, 6-butyl-5-(2,6-dimethoxyphenyl)-3-[5-(5-methyl-1H-pyrazol-3-yl)-1,3,4-oxadiazol-2-yl]pyridine-2,4-diol]: the EC50 under setting [2] fell in the range of 100 to 300 nM.

The values are drawn from patent US10336739B2, “4-hydroxy-3-(heteroaryl)pyridine-2-one APJ agonists” (BRISTOL-MYERS SQUIBB COMPANY, priority 2015, dated 2019).
